Laboratory results from patent US20250084091A1, “INHIBITORS OF SARS-COV-2” (The Texas A&M University System, priority 2021, published 2025).
In brackets after ≈: the same amount, converted by molar mass. Where two headings read alike, the source gives them in different places.

Key:
[1] = test system: SARS-CoV-2 (strain USA-WA1/2020); test: microbe, parasite or virus in culture; format: cell-based; conditions: SARS-CoV-2 infected HeLa-ACE2 cells
[2] = Uninfected host cell cytotoxicity counter screen; format: cell-based; conditions: human
Procedure, shortened: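 HeLa-ACE2 cells, uninfected, seeded at 400 cells/well with compounds and held 24 hours at 37° C., 5% CO2. Dead cells stained with Image-iT DEAD green, fixed in 4% paraformaldehyde, DAPI-counterstained and imaged. Data normalized to DMSO and 40 μM puromycin controls; concentration responses in triplicate.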

[3] = target: SARS-CoV-2 main protease (Mpro) (Severe acute respiratory syndrome coronavirus 2, UniProt P0DTD1); test: biochemical
HeLa-ACE2 cells = test: cells; format: cell-based; conditions: Table 2, total cell count in infected plates
CoV-2 in Vero cells = test: CoV-2 Vero antiviral assay; format: cell-based, SARS-CoV-2; conditions: Severe acute respiratory syndrome coronavirus 2, Vero, read-out: CoV-2 Vero EC50/100
[4] = Severe acute respiratory syndrome coronavirus 2, Table 2, read-out: CoV-2 HeLa EC50

Row | Compound | EC50 [1, 4] [nM] | CC50 at 24 h [2] [µM] | IC50 ([3]; Table 2, read-out: Enzyme IC50) [nM] | EC50 (HeLa-ACE2 cells) [nM] | EC50 (CoV-2 in Vero cells) [µg/mL] | EC50 ([1]; Severe acute respiratory syndrome coronavirus 2, HeLa-ACE2, read-out: CoV-2 HeLa EC50, Table 2) [nM] | CC50 at 24 h ([2]; Table 2, uninfected cells, 24 hours, read-out: Uninfected HeLa-ACE2 CC50) [µM] | IC50 ([3]; Enzyme IC50, Table 2) [nM]
1 | Cc1cncc(C(=O)N2CCN(C(c3ccccc3)c3cccnc3)CC2)c1 (centres unmarked) [MKP-1217, 1-(5-methylpyridine-3-carbonyl)-4-[phenyl(pyridin-3-yl)methyl]piperazine] | 475 | > 39.8 | 320 | 1310 | 10 (≈ 26.8 µM) | – | – | –
2 | Cc1cncc(C(=O)N2CCN(C(c3ccccc3)c3cccc(Cl)c3)CC2)c1 (centres unmarked) [MKP-1272, 1-[(3-chlorophenyl)(phenyl)methyl]-4-(5-methylpyridine-3-carbonyl)piperazine] | 246 | 33.6 | 365 | 117 | 10 (≈ 24.6 µM) | – | – | –
3 | Cc1cncc(C(=O)N2CCC(C(c3ccccc3)c3ccccc3)CC2)c1 [NZ-786, 3-[4-(diphenylmethyl)piperidine-1-carbonyl]-5-methylpyridine] | 570 | 28.5 | 170 | > 9610 | 10 (≈ 27 µM) | – | – | –
4 | Cc1cncc(C(=O)N2CCC(=C3c4ccccc4CCc4ccccc43)CC2)c1 [ZS-336, (5-methyl-3-pyridyl)-[4-(2-tricyclo[9.4.0.03,8]pentadeca-1(11),3(8),4,6,12,14-hexaenylidene)-1-piperidyl]methanone] | 252 | 31.5 | 54 | 314 | 2.5 (≈ 6.34 µM) | – | – | –
5 | Cc1cncc(C(=O)N2CCC(=C3c4ccccc4C=Cc4ccccc43)CC2)c1 [NZ-793, (5-methyl-3-pyridyl)-[4-(2-tricyclo[9.4.0.03,8]pentadeca-1(11),3(8),4,6,9,12,14-heptaenylidene)-1-piperidyl]methanone] | 527 | 33.1 | 120 | 520 | 5 (≈ 12.7 µM) | – | – | –
6 | Cc1cncc(C(=O)N2CC3CCC(C2)N3C(c2ccccc2)c2ccccc2)c1 [AA-604, (8-benzhydryl-3,8-diazabicyclo[3.2.1]octan-3-yl)(5-methylpyridin-3-yl)methanone] | – | – | – | > 9610 | 5 (≈ 12.6 µM) | 240 | > 39.8 | 81
7 | Nc1cncc(C(=O)N2CCN(C3c4ccccc4CCc4ccccc43)CC2)c1 [ZS-342, (5-amino-3-pyridyl)-[4-(2-tricyclo[9.4.0.03,8]pentadeca-1(11),3(8),4,6,12,14-hexaenyl)piperazin-1-yl]methanone] | 406 | > 39.8 | 150 | 1180 | 5 (≈ 12.5 µM) | – | – | –
8 | O=C(c1cncc(Br)c1)N1CCN(C2c3ccccc3CSc3ccccc32)CC1 (centres unmarked) [NZ-774, (5-bromo-3-pyridyl)-[4-(6,11-dihydrobenzo[c][1]benzothiepin-11-yl)piperazin-1-yl]methanone] | 630 | > 39.8 | 130 | > 9610 | 5 (≈ 10.4 µM) | – | – | –
9 | Cc1cncc(C(=O)N2CCN(C(c3cccc(F)c3)c3cccc(F)c3)CC2)c1 [MKP-1268, 1-[bis(3-fluorophenyl)methyl]-4-(5-methylpyridine-3-carbonyl)piperazine] | 111 | > 39.8 | 36 | 143 | 2.5 (≈ 6.14 µM) | – | – | –
10 | O=C(c1cncc(Br)c1)N1CCN(C2c3ccccc3C=Cc3ccccc32)CC1 [NZ-773, (5-bromo-3-pyridyl)-[4-(2-tricyclo[9.4.0.03,8]pentadeca-1(11),3(8),4,6,9,12,14-heptaenyl)piperazin-1-yl]methanone] | 700 | > 39.8 | 100 | > 9610 | 20 (≈ 43.4 µM) | – | – | –
